Measured values reported in patent publication US12037324B2, “Biarylmethyl heterocycles” (Université de Montréal, priority 2016, dated 2024).

Legend:
Type in all cases: cell-based
[1] = target: T1, AGTR1 (Homo sapiens, UniProt P30556); experiment: DiscoveRx β-arrestin2 recruitment assay (enzyme complementation, Pathunter CHO-K1 AGTR1 β-arrestin cell line); details: DiscoveRx β-arrestin2 recruitment; for DiscoveRx β-arrestin2 Ymax (%): maximal response
T1 construct: host or cells: Pathunter CHO-K1 AGTR1 β-arrestin cell line (CHO-K1)
T1 sequence (P30556 1-359): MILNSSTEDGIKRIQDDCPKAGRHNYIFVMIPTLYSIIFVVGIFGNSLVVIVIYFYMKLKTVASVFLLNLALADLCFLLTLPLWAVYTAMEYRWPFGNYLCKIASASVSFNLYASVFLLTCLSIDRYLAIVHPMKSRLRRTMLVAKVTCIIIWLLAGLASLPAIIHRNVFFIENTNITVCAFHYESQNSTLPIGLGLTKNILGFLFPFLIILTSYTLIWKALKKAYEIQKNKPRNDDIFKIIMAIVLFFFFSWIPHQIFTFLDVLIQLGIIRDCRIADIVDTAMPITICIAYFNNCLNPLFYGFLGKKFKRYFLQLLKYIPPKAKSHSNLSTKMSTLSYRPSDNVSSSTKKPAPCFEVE
Outline: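 Chemiluminescent enzyme-complementation read-out of β-arrestin2 recruitment to AGTR1 in engineered CHO-K1 cells after 90 min compound exposure at 37° C. Values are 4-parameter logistic EC50s in agonist mode, IC50s in antagonist mode, with efficacy relative to the maximal All response.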

[2] = target: T2, hAT1R (Homo sapiens, UniProt P30556); experiment: BRET β-arrestin2 biosensor assay, higher receptor expression (hAT1R 5 ng/well), HEK293 cells; details: for EC50: High AT1R Expression
T2 sequence (P30556 1-359): T1 sequence (P30556 1-359)

[3] = target: T1, AGTR1; experiment: DiscoveRx IP1 accumulation assay (HTRF), agonist mode, Pathunter CHO-K1 AGTR1 β-arrestin cell line; details: for EC50: read-out: IP-1 EC50
Outline: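 Agonist mode in CHO-K1 AGTR1 β-arrestin cells plated 14-16 h before; compounds at varying concentrations for 90 min at 37° C, IP1 accumulation read by HTRF (D2-conjugate and anti-IP1 cryptate, 20 min room temperature). EC50 from 4-parameter logistic fit; activity given as percentage of maximal AII effect.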

Row | SMILES | EC50 [1] | DiscoveRx β-arrestin2 Ymax (%) [1] | BRET β-Arrestin2 High AT1R Expression Ymax (%) [2] | EC50 [2] | EC50 [3] | IP-1 Ymax (%) [3]
1 | CCCCC1=NC2(CCCC2)C(=O)N1Cc1ccc(-c2cc(-c3ccccc3CO)ccc2-c2nn[nH]n2)cc1 [Example 128] | 25.7 nM | 14.5% | 11.0% | 133 nM | > 100000 nM | –
2 | CCCCC1=NC2(CCCC2)C(=O)N1Cc1ccc(-c2cc(-c3cccnc3)ccc2-c2nn[nH]n2)cc1 [Example 125] | 45.3 nM | 16.6% | 15.1% | 300 nM | > 100000 nM | –
3 | CCCCC1=NC2(CCCC2)C(=O)N1Cc1ccc(-c2cc(-c3cccc(F)c3F)ccc2-c2noc(=O)[nH]2)cc1 [Example 144, 3-(4″-((2-butyl-4-oxo-1,3-diazaspiro[4.4]non-1-en-3-yl)methyl)-2,3-difluoro-[1,1′:3′,1″-terphenyl]-4′-yl)-1,2,4-oxadiazol-5(4H)-one] | 12.3 nM | 33.3% | 104.0% | 26.8 nM | > 100000 nM | –
4 | CCc1nc2c(C)cc(C)nc2n1Cc1ccc(-c2cc(C3CCCO3)ccc2-c2nn[nH]n2)cc1 (single isomer, unassigned) [Example 74, 2-ethyl-5,7-dimethyl-3-((5′-(tetrahydrofuran-2-yl)-2′-(2H-tetrazol-5-yl)-[1,1′-biphenyl]-4-yl)methyl)-3H-imidazo[4,5-b]pyridine] | 391 nM | 3.9% | 3.2% | > 100000 nM | > 100000 nM | –
5 | CCc1nc2c(C)cc(C)nc2n1Cc1ccc(-c2cc(C3CCCCN3)ccc2-c2nn[nH]n2)cc1 (single isomer, unassigned) [Example 75, 2-ethyl-5,7-dimethyl-3-((5′-(piperidin-2-yl)-2′-(2H-tetrazol-5-yl)-[1,1′-biphenyl]-4-yl)methyl)-3H-imidazo[4,5-b]pyridine] | 543 nM | 7.1% | 53.9% | 1120 nM | > 100000 nM | –
6 | CCc1nc2c(C)cc(C)nc2n1Cc1ccc(-c2cc(-n3cccc3)ccc2-c2nn[nH]n2)cc1 [Example 90] | 55.4 nM | 23.2% | 77.7% | 27.7 nM | 39.8 nM | 6.0%
7 | CCc1nc2c(C)cc(C)nc2n1Cc1ccc(-c2cc(-c3cccc(C(=O)N(C)C)c3)ccc2-c2nn[nH]n2)cc1 [Example 23] | 54.1 nM | 26.8% | 66.3% | 170 nM | 211 nM | 7.3%
8 | CCCCC1=NC2(CCCC2)C(=O)N1Cc1ccc(-c2cc(-c3cccc(C(F)(F)F)n3)ccc2-c2nn[nH]n2)cc1 [Example 142] | 27.5 nM | 22.7% | 82.9% | 59.2 nM | 140 nM | 4.8%
9 | CCc1nc2c(C)cc(C)nc2n1Cc1ccc(-c2cc(N3CCC(F)(F)C3)ccc2-c2nn[nH]n2)cc1 [Example 51] | 21.2 nM | 21.1% | 43.8% | 99 nM | 92.1 nM | 3.7%
10 | CCc1nc2c(C)cc(C)nc2n1Cc1ccc(-c2cc(-c3cccn3C)ccc2-c2nn[nH]n2)cc1 [Example 22] | 10.3 nM | 14.8% | 57.1% | 33.7 nM | 34.4 nM | 2.4%
11 | CCCCC1=NC2(CCCC2)C(=O)N1Cc1ccc(-c2cc(-n3ccc4ccc(F)cc43)ccc2-c2nn[nH]n2)cc1 [Example 109] | 19.6 nM | 17.4% | 59.9% | 73.1 nM | > 100000 nM | –
12 | CCCCC1=NC2(CCCC2)C(=O)N1Cc1ccc(-c2cc(N3CCCC(C)(C)C3)ccc2-c2nn[nH]n2)cc1 [Example 102] | 44.4 nM | 41.0% | 71.6% | 99.6 nM | 723 nM | 3.8%
13 | CCc1nc2c(C)cc(C)nc2n1Cc1ccc(-c2cc(-c3cccnc3)ccc2-c2nn[nH]n2)cc1 [Example 52] | 5.5 nM | 5.0% | 23.4% | 30.7 nM | > 1000 nM | –
14 | CCc1nc2c(C)cc(C)nc2n1Cc1ccc(-c2cc(N3C(=O)c4ccccc4C3=O)ccc2-c2nn[nH]n2)cc1 [Example 27, 2-(4′-((2-ethyl-5,7-dimethyl-3H-imidazo[4,5-b]pyridin-3-yl)methyl)-6-(2H-tetrazol-5-yl)-[1,1′-biphenyl]-3-yl)isoindoline-1,3-dione] | 206 nM | 10.6% | 20.1% | 89.5 nM | > 100000 nM | –
15 | CCc1nc2c(C)cc(C)nc2n1Cc1ccc(-c2cc(C3CCCCC3)ccc2-c2nn[nH]n2)cc1 [Example 71, 3-((5′-Cyclohexyl-2′-(2H-tetrazol-5-yl)-[1,1′-biphenyl]-4-yl)methyl)-2-ethyl-5,7-dimethyl-3H-imidazo[4,5-b]pyridine] | 17.4 nM | 46.8% | 86.6% | 23.3 nM | 48600 nM | 11.8%
16 | CCCCC1=NC2(CCCC2)C(=O)N1Cc1ccc(-c2cc(Nc3ccccc3)ccc2-c2nn[nH]n2)cc1 [Example 99, 2-butyl-3-((5′-(phenylamino)-2′-(2H-tetrazol-5-yl)-[1,1′-biphenyl]-4-yl)methyl)-1,3-diazaspiro[4.4]non-1-en-4-one] | 32.4 nM | 6.3% | 9.6% | 144 nM | > 100000 nM | –
17 | CCc1nc2c(C)cc(C)nc2n1Cc1ccc(-c2cc(-c3ccccc3O)ccc2C(=O)O)cc1 [Example 184] | 31 nM | 51.2% | 85.9% | 14.7 nM | 110 nM | 12.0%
18 | CCc1nc2c(C)cc(C)nc2n1Cc1ccc(-c2cc(-c3ccccc3)ccc2OCC(=O)O)cc1 [Example 69, 2-((4″-((2-ethyl-5,7-dimethyl-3H-imidazo[4,5-b]pyridin-3-yl)methyl)-[1,1′:3′,1″-terphenyl]-4′-yl)oxy)acetic acid] | 376 nM | 8.5% | 10.3% | 1500 nM | > 100000 nM | –
19 | CCCCC1=NC2(CCCC2)C(=O)N1Cc1ccc(-c2cc(-c3ccc(CO)cc3)ccc2-c2nn[nH]n2)cc1 [Example 126] | 5.3 nM | 17.3% | 65.1% | 47.1 nM | > 100000 nM | –
20 | CCc1nc2c(C)cc(C)nc2n1Cc1ccc(-c2cc(Oc3cccc(Cl)c3)ccc2-c2nnn[nH]2)cc1 [Example 206] | 11.1 nM | 21.2% | 57.9% | 15.8 nM | 35.4 nM | 4.8%
